From PMC3860322 (Leukemia & lymphoma, 2013)

Legend:
[1] = Plasma pharmacokinetics of 17-AAG and its metabolite 17-AG; format: in vivo, patients; conditions: for AUC exposed: combined AUC of 17-AAG and 17-AG
acute myeloid leukemia = conditions: phase I trial in AML, after one cycle of therapy; cited from earlier work
cytochrome P450 3A4 = conditions: cited from earlier work
[2] = 17-AAG in plasma, day 1 (17-AAG alone), 150 mg/m^2, n=8
[3] = 17-AAG in plasma, day 1 (17-AAG alone), 200 mg/m^2, n=3
[4] = 17-AAG in plasma, day 4 (17-AAG+PS-341), 150 mg/m^2, n=8
[5] = 17-AAG in plasma, day 4 (17-AAG+PS-341), 200 mg/m^2, n=3
[6] = 17-AAG, day 1 (17-AAG alone), 150 mg/m^2, n=8
[7] = 17-AAG, day 1 (17-AAG alone), 200 mg/m^2, n=3
[8] = 17-AAG, day 4 (17-AAG+PS-341), 150 mg/m^2, n=8
[9] = 17-AAG, day 4 (17-AAG+PS-341), 200 mg/m^2, n=3
[10] = metabolite 17-AG, day 1 (17-AAG alone), 17-AAG 150 mg/m^2, n=8
[11] = metabolite 17-AG, day 1 (17-AAG alone), 17-AAG 200 mg/m^2, n=3
[12] = metabolite 17-AG, day 4 (17-AAG+PS-341), 17-AAG 150 mg/m^2, n=8
[13] = metabolite 17-AG, day 4 (17-AAG+PS-341), 17-AAG 200 mg/m^2, n=3

## C=CCNC1=C2C[C@@H](C)C[C@H](OC)[C@H](O)[C@@H](C)/C=C(\C)[C@H](OC(N)=O)[C@@H](OC)/C=C\C=C(/C)C(=O)NC(=CC1=O)C2=O [17-AAG, 17-Allylamino-17-demethoxygeldanamycin, reference compound]
[1]; 17-AAG in plasma, cycle 1 day 1 (17-AAG alone), 17-AAG 200 mg/m^2 IV, n=3
  Cmax: 3814 ± 578 ng/mL
[1]; [2]
  AUCtot: 5871 ± 2508 ng·h/mL
  Terminal T1/2: 4.77 ± 1.15 h
[1]; [3]
  AUCtot: 9002 ± 1970 ng·h/mL
  Terminal T1/2: 4.59 ± 0.21 h
[1]; [4]
  AUCtot: 6717 ± 2631 ng·h/mL
  Terminal T1/2: 4.04 ± 0.86 h
[1]; [5]
  AUCtot: 9142 ± 1358 ng·h/mL
  Terminal T1/2: 3.78 ± 1.29 h
[1]; [6]
  Clearance: 29.36 ± 11.11 L/h
  Vss: 98.10 ± 37.46 L
[1]; [7]
  Clearance: 22.92 ± 4.89 L/h
  Vss: 73.30 ± 16.81 L
[1]; [8]
  Clearance: 24.94 ± 8.10 L/h
  Vss: 82.36 ± 19.91 L
[1]; [9]
  Clearance: 21.92 ± 3.91 L/h
  Vss: 86.83 ± 24.37 L

## CO[C@H]1/C=C\C=C(/C)C(=O)NC2=CC(=O)C(N)=C(C[C@@H](C)C[C@H](OC)[C@H](O)[C@@H](C)/C=C(\C)[C@@H]1OC(N)=O)C2=O [17-AG, 17-amino-17-demethoxygeldanamycin]
[1]; day 1 (17-AAG alone), 17-AAG 150 mg/m^2, n=8
  AUC exposed: 12205 ± 8530 ng·h/mL
[1]; day 1 (17-AAG alone), 17-AAG 200 mg/m^2, n=3
  AUC exposed: 18959 ± 3169 ng·h/mL
[1]; day 4 (17-AAG+PS-341), 17-AAG 150 mg/m^2, n=8
  AUC exposed: 14468 ± 7179 ng·h/mL
[1]; day 4 (17-AAG+PS-341), 17-AAG 200 mg/m^2, n=3
  AUC exposed: 22403 ± 1036 ng·h/mL
[1]; day 4 (17-AAG+bortezomib) vs day 1 (17-AAG alone), all 11 patients, p=0.005
  change in 17-AG clearance on co-administration with bortezomib: decrease in clearance
[1]; day 4 (17-AAG+bortezomib) vs day 1 (17-AAG alone), all 11 patients, p=.032
  change in 17-AG AUC on co-administration with bortezomib: increase in AUC
[1]; metabolite 17-AG in plasma, day 1 (17-AAG alone), 17-AAG 150 mg/m^2, n=8
  Cmax: 821 ± 450 ng/mL
[1]; metabolite 17-AG in plasma, day 1 (17-AAG alone), 17-AAG 200 mg/m^2, n=3
  Cmax: 1300 ± 421 ng/mL
[1]; metabolite 17-AG in plasma, day 4 (17-AAG+PS-341), 17-AAG 150 mg/m^2, n=8
  Cmax: 1025 ± 445 ng/mL
[1]; metabolite 17-AG in plasma, day 4 (17-AAG+PS-341), 17-AAG 200 mg/m^2, n=3
  Cmax: 1412 ± 26 ng/mL
[1]; metabolite 17-AG, apparent clearance, day 1 (17-AAG alone), 17-AAG 150 mg/m^2, n=8
  Clearance: 41.35 ± 26.48 L/h
[1]; metabolite 17-AG, apparent clearance, day 1 (17-AAG alone), 17-AAG 200 mg/m^2, n=3
  Clearance: 23.07 ± 12.01 L/h
[1]; metabolite 17-AG, apparent clearance, day 4 (17-AAG+PS-341), 17-AAG 150 mg/m^2, n=8
  Clearance: 29.87 ± 23.29 L/h
[1]; metabolite 17-AG, apparent clearance, day 4 (17-AAG+PS-341), 17-AAG 200 mg/m^2, n=3
  Clearance: 14.86 ± 1.55 L/h
[1]; [10]
  AUCtot: 6334 ± 6244 ng·h/mL
  Terminal T1/2: 11.16 ± 1.40 h
  Tmax: 1.53 ± 0.42 h
[1]; [11]
  AUCtot: 9957 ± 4258 ng·h/mL
  Terminal T1/2: 7.92 ± 1.76 h
  Tmax: 1.53 ± 0.46 h
[1]; [12]
  AUCtot: 7751 ± 5028 ng·h/mL
  Terminal T1/2: 10.53 ± 2.20 h
  Tmax: 1.85 ± 1.10 h
[1]; [13]
  AUCtot: 13261 ± 1216 ng·h/mL
  Terminal T1/2: 7.47 ± 0.73 h
  Tmax: 3.72 ± 0.64 h

## CO[C@H]1/C=C\C=C(/C)C(=O)NC2=CC(=O)C(NCCN(C)C)=C(C[C@@H](C)C[C@H](OC)[C@H](O)[C@@H](C)/C=C(\C)[C@@H]1OC(N)=O)C2=O [alvespimycin]
Acute myeloid leukemia
  clinical response: three patients achieved a complete remission with incomplete count recovery

## CC(C)C[C@H](NC(=O)[C@H](Cc1ccccc1)NC(=O)c1cnccn1)B(O)O [bortezomib]
Cytochrome P450 3A4
  metabolizing enzyme: metabolized by cytochrome P450 3A4
